The values below come from paper PMC7618036, “An oral heme oxygenase inhibitor targets immunosuppressive perivascular macrophages in preclinical models of cancer” (Science translational medicine, 2025).

The subject of this test is MMTV-PyMT tumors. In words: Gemcitabine tumor growth in Lyve1^Cre and Lyve1^WT MMTV-PyMT Hmox1^fl/fl mice. The format is in vivo, mouse. The note with it: gemcitabine 6.6mg/kg/7days. From the text: Figure 1 LYVE-1^+ PvTAMs modulate the immune landscape and resistance to chemotherapy in cancer through their expression of HO-1. (A) Representative image of a frozen section of MMTV-PyMT tumor stained with DAPI (nuclei; blue) and antibodies against F4/80 (magenta), HO-1 (red), CD31 (green). Colocalizing pixels for F4/80 and HO-1 are shown in yellow. Scale bar is 50 µm. (B-E) Schematic depicting the transgene of the HO-1 reporter mice (HO-1^Luc/eGFP) (top panel) and representative dot plot of FACs-gated live (7AAD^-) cells from enzyme-dispersed MMTV-PyMT HO-1^Luc/eGFP tumors separated based on their respective expression of HO-1 (eGFP) and CD45 (bottom panel) (B). HO-1/eGFP normalized median fluorescent intensity (MFI) of the indicated tumoral cell populations with background MFI subtracted from WT mice (n=5) (C). Representative contour plot of FACs-gated live (7AAD^-), CD45^+F4/80^+ TAMs separated based on their expression of CD206 and MHCII (left) and histograms showing the HO-1/eGFP expression of the subsets alongside the background fluorescence in WT mice (right) (D). Representative histograms of the TAM populations identified in (D) for their surface expression of LYVE-1 alongside their respective fluorescence minus one (FMO) staining (E). (F) Quantitation of the respective TAM populations identified in (D) across MMTV-PyMT tumors (n=10). […]

On to `Nc1ccn([C@@H]2O[C@H](CO)[C@@H](O)C2(F)F)c(=O)n1` [gemcitabine], for which the tumor growth entry (Lyve1^Cre mice) was “long-term durable control of tumor growth” and the tumor growth result (Lyve1^WT mice) was “insensitive”.
